Measured values from patent publication US20140296212A1, “SUBSTITUTED PHENOXYPROPYLCYCLOAMINE DERIVATIVES AS HISTAMINE-3 (H3) RECEPTOR LIGANDS” (CEPHALON, INC., priority 2009, published 2014).

Experiments:
human H3 receptor = target: T1, human H3 receptor (Homo sapiens, UniProt Q9Y5N1); assay: Human H3 radioligand binding ([3H]-N-alpha-methylhistamine, SPA); details: membranes of CHO cells expressing human H3
T1 construct: expressed in transfected cells
Summary of the method: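 Membranes from H3-expressing cells (10 μg protein/well) in 50 mM Tris HCl pH 7.4, 5 mM MgCl2, 0.1% BSA with ~1 nM [3H]-N-alpha-methylhistamine and compound (0.01 nM–30 μM), SPA beads, 4 h, room temperature, dark. Non-specific binding defined with 10 μM clobenpropit; bound radioligand read by scintillation counting.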

[1] = target: T2, rat histamine H3 receptor (Rattus norvegicus, UniProt Q9QYN8); assay: Rat H3 radioligand binding ([3H]-N-alpha-methylhistamine, SPA); details: membranes of CHO-A3 cells expressing rat H3; [3H]-N-alpha-methylhistamine; read-out: Rat H3 Ki
T2 construct: encoding the entire 445-amino-acid rat histamine H3 receptor; expressed in transfected cells
T2 sequence (Q9QYN8 whole entry): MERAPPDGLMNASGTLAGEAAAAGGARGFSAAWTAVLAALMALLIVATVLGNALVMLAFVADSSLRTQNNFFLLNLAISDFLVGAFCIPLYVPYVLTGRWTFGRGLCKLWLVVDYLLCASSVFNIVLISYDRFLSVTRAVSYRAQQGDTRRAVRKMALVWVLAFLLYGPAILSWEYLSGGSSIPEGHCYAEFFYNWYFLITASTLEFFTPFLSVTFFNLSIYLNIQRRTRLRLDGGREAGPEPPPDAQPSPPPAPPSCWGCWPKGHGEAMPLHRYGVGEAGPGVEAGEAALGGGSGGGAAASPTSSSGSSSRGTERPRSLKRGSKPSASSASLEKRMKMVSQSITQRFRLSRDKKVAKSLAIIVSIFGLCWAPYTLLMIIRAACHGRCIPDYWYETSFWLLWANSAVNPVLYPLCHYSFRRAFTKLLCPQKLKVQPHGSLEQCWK
Summary of the method: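 Membranes from CHO-A3 cells stably expressing full-length rat H3 receptor (445 aa) incubated with ~1 nM [3H]-N-alpha-methylhistamine and compound (0.01 nM–30 μM) in 50 mM Tris HCl pH 7.4, 5 mM MgCl2, 0.1% BSA, 4 h, room temperature; SPA bead read-out. Non-specific binding defined with 10 μM clobenpropit.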

T1 sequence (Q9Y5N1 whole entry): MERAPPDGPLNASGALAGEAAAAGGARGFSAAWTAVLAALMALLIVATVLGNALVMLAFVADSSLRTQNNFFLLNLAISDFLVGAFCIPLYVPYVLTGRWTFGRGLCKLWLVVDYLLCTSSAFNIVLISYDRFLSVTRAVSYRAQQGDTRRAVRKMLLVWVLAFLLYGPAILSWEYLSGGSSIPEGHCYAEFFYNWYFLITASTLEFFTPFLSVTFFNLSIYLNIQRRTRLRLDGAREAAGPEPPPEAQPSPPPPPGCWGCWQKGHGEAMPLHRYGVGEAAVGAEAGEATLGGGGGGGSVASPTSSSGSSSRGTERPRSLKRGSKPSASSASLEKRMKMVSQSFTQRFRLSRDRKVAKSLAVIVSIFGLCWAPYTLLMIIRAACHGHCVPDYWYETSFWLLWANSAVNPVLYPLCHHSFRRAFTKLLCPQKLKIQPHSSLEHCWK

Structure (SMILES)	Ki (human H3 receptor) [nM]	Ki [1] [nM]	melting point
Cc1cc(OCCCN2CCCCC2)ccc1C(=O)CN1CCOCC1 [Example 72, 1-[2-Methyl-4-(3-piperidin-1-yl-propoxy)-phenyl]-2-morpholin-4-yl-ethanone]	0.1 to 100	101 to 500	206 to 215 °C
C[C@@H]1CCCN1CCCOc1ccc(C(=O)CN2CCN(C(=O)N3CCCC3)CC2)cc1 [Example 75, 1-{4-[3-((R)-2-Methyl-pyrrolidin-1-yl)-propoxy]-phenyl}-2-[4-(pyrrolidine-1-carbonyl)-piperazin-1-yl]-ethanone]	0.1 to 100	0.1 to 100	118 to 130 °C
COC[C@@H]1CCCN1CCCOc1ccc(C(=O)CN2CCOCC2)cc1 [Example 76, 1-{4-[3-((S)-2-Methoxymethyl-pyrrolidin-1-yl)-propoxy]-phenyl}-2-morpholin-4-yl-ethanone]	> 1000	> 1000	74 to 76 °C
CC(C)C(=O)N1CCN(CC(=O)c2ccc(OCCCN3CCC[C@H]3C)cc2)CC1 [Example 77, 2-Methyl-1-[4-(2-{4-[3-((R)-2-methyl-pyrrolidin-1-yl)-propoxy]-phenyl}-2-oxo-ethyl)-piperazin-1-yl]-propan-1-one]	0.1 to 100	0.1 to 100	220 to 226 °C
O=C(CN1CCOCC1)c1ccc(OCCCN2CCCCC2)cc1 [Example 78, 2-Morpholin-4-yl-1-[4-(3-piperidin-1-yl-propoxy)-phenyl]-ethanone]	0.1 to 100	101 to 500	236 to 243 °C
C[C@@H]1CCCN1CCCOc1ccc(C(=O)CN2CCN(C(=O)N(C)C)CC2)cc1 [Example 79, 4-(2-{4-[3-((R)-2-Methyl-pyrrolidin-1-yl)-propoxy]-phenyl}-2-oxo-ethyl)-piperazine-1-carboxylic acid dimethylamide]	0.1 to 100	0.1 to 100	120 to 126 °C
C[C@@H]1CCCN1CCCOc1ccc(C(=O)CN2CCN(C(=O)c3cccs3)CC2)cc1 [Example 80, 1-{4-[3-((R)-2-Methyl-pyrrolidin-1-yl)-propoxy]-phenyl}-2-[4-(thiophene-2-carbonyl)-piperazin-1-yl]-ethanone]	0.1 to 100	0.1 to 100	152 to 156 °C
C[C@@H]1CCCN1CCCOc1ccc(C(=O)CN2CCN(C(=O)c3ccco3)CC2)cc1 [Example 81, 2-[4-(Furan-2-carbonyl)-piperazin-1-yl]-1-{4-[3-((R)-2-methyl-pyrrolidin-1-yl)-propoxy]-phenyl}-ethanone]	0.1 to 100	0.1 to 100	130 to 135 °C
COC(=O)N1CCN(CC(=O)c2ccc(OCCCN3CCC[C@H]3C)cc2)CC1 [Example 82, 4-(2-{4-[3-((R)-2-Methyl-pyrrolidin-1-yl)-propoxy]-phenyl}-2-oxo-ethyl)-piperazine-1-carboxylic acid methyl ester]	0.1 to 100	0.1 to 100	208 to 210 °C
C[C@@H]1CCCN1CCCOc1ccc(C(=O)CN2CCN(C(=O)C3CCCO3)CC2)cc1 (stereo partly drawn) [Example 83, 1-{4-[3-((R)-2-Methyl-pyrrolidin-1-yl)-propoxy]-phenyl}-2-[4-(tetrahydro-furan-2-carbonyl)-piperazin-1-yl]-ethanone]	0.1 to 100	0.1 to 100	185 to 190 °C
C[C@@H]1CCCN1CCCOc1ccc(C(=O)CN2CCN(C(=O)c3cccn3C)CC2)cc1 [Example 84, 2-[4-(1-Methyl-1H-pyrrole-2-carbonyl)-piperazin-1-yl]-1-{4-[3-((R)-2-methyl-pyrrolidin-1-yl)-propoxy]-phenyl}-ethanone]	0.1 to 100	0.1 to 100	221 to 224 °C
C[C@@H]1CCCN1CCCOc1ccc(C(=O)CN2CCNC(=O)C2)cc1 [Example 85, 4-(2-{4-[3-((R)-2-Methyl-pyrrolidin-1-yl)-propoxy]-phenyl}-2-oxo-ethyl)-piperazin-2-one]	0.1 to 100	0.1 to 100	137 to 145 °C
CC1(C)CCCN1CCCOc1ccc(C(=O)CN2CCOCC2)cc1 [Example 88, 1-{4-[3-(2,2-Dimethyl-pyrrolidin-1-yl)-propoxy]-phenyl}-2-morpholin-4-yl-ethanone]	> 1000	> 1000	117 to 120 °C
C[C@@H]1CCCN1CCCOc1ccc(C(=O)CN2CCN(C(=O)C3CC3)CC2)cc1 [Example 89, 2-(4-Cyclopropanecarbonyl-piperazin-1-yl)-1-{4-[3-((R)-2-methyl-pyrrolidin-1-yl)-propoxy]-phenyl}-ethanone]	0.1 to 100	0.1 to 100	202 to 204 °C
C[C@@H]1CCCN1CCCOc1ccc(C(=O)CN2CCN(c3ncccn3)CC2)cc1 [Example 90, 1-{4-[3-((R)-2-Methyl-pyrrolidin-1-yl)-propoxy]-phenyl}-2-(4-pyrimidin-2-yl-piperazin-1-yl)-ethanone]	0.1 to 100	0.1 to 100	112 to 114 °C
C[C@@H]1CCCN1CCCOc1ccc(C(=O)CN2CCN(c3ccccc3)CC2)cc1 [Example 91, 1-{4-[3-((R)-2-Methyl-pyrrolidin-1-yl)-propoxy]-phenyl}-2-(4-phenyl-piperazin-1-yl)-ethanone]	0.1 to 100	0.1 to 100	145 to 150 °C
C[C@@H]1CCCN1CCCOc1ccc(C(=O)CN2CCN(C(=O)c3ccc(C(F)(F)F)cc3)CC2)cc1 [Example 92, 1-{4-[3-((R)-2-Methyl-pyrrolidin-1-yl)-propoxy]-phenyl}-2-[4-(4-trifluoromethyl-benzoyl)-piperazin-1-yl]-ethanone]	0.1 to 100	0.1 to 100	227 to 230 °C
C[C@@H]1CCCN1CCCOc1ccc(C(=O)CN2CCN(C(=O)C3CCCCC3)CC2)cc1 [Example 93, 2-(4-Cyclohexanecarbonyl-piperazin-1-yl)-1-{4-[3-((R)-2-methyl-pyrrolidin-1-yl)-propoxy]-phenyl}-ethanone]	0.1 to 100	0.1 to 100	230 to 232 °C
C[C@@H]1CCCN1CCCOc1ccc(C(=O)CN2CCN(c3ccc(F)cc3)CC2)cc1 [Example 94, 2-[4-(4-Fluoro-phenyl)-piperazin-1-yl]-1-{4-[3-((R)-2-methyl-pyrrolidin-1-yl)-propoxy]-phenyl}-ethanone]	0.1 to 100	0.1 to 100	140 to 145 °C
Cc1cc(C(=O)CN2CCC(F)(F)CC2)cc(C)c1OCCCN1CCC[C@H]1C [Example 95, 2-(4,4-Difluoro-piperidin-1-yl)-1-{3,5-dimethyl-4-[3-((R)-2-methyl-pyrrolidin-1-yl)-propoxy]-phenyl}-ethanone]	101 to 500	> 1000	140 to 142 °C
C[C@@H]1CCCN1CCCOc1c(Cl)cc(C(=O)CN2CCN(C(=O)c3ccccc3)CC2)cc1Cl [Example 96, 2-(4-Benzoyl-piperazin-1-yl)-1-{3,5-dichloro-4-[3-((R)-2-methyl-pyrrolidin-1-yl)-propoxy]-phenyl}-ethanone]	0.1 to 100	101 to 500	111 °C
CC(=O)N1CCN(CC(=O)c2cc(C)c(OCCCN3CCC[C@H]3C)c(C)c2)CC1 [Example 97, 2-(4-Acetyl-piperazin-1-yl)-1-{3,5-dimethyl-4-[3-((R)-2-methyl-pyrrolidin-1-yl)-propoxy]-phenyl}-ethanone]	101 to 500	501 to 1000	118 to 119 °C
C[C@@H]1CCCN1CCCOc1c(Cl)cc(C(=O)CN2CCC(F)(F)CC2)cc1Cl [Example 98, 1-{3,5-Dichloro-4-[3-((R)-2-methyl-pyrrolidin-1-yl)-propoxy]-phenyl}-2-(4,4-difluoro-piperidin-1-yl)-ethanone]	0.1 to 100	> 1000	102 °C
C[C@@H]1CCCN1CCCOc1c(Cl)cc(C(=O)CN2CCN(C(=O)C3CCCCC3)CC2)cc1Cl [Example 99, 2-(4-Cyclohexanecarbonyl-piperazin-1-yl)-1-{3,5-dichloro-4-[3-((R)-2-methyl-pyrrolidin-1-yl)-propoxy]-phenyl}-ethanone]	0.1 to 100	101 to 500	168 °C
C[C@@H]1CCCN1CCCOc1ccc(C(=O)CN2CCN(C(=O)c3ccc(Cl)cc3)CC2)cc1 [Example 100, 2-[4-(4-Chloro-benzoyl)-piperazin-1-yl]-1-{4-[3-((R)-2-methyl-pyrrolidin-1-yl)-propoxy]-phenyl}-ethanone]	0.1 to 100	0.1 to 100	233 to 236 °C
C[C@@H]1CCCN1CCCOc1ccc(C(=O)CN2CCN(C(=O)c3ccc(F)cc3)CC2)cc1 [Example 101, 2-[4-(4-Fluoro-benzoyl)-piperazin-1-yl]-1-{4-[3-((R)-2-methyl-pyrrolidin-1-yl)-propoxy]-phenyl}-ethanone]	0.1 to 100	0.1 to 100	225 to 229 °C
C[C@@H]1CCCN1CCCOc1c(Cl)cc(C(=O)CN2CCN(c3ccccc3)CC2)cc1Cl [Example 102]	101 to 500	> 1000	168 °C
Cc1cc(C(=O)CN2CCN(c3ncccn3)CC2)cc(C)c1OCCCN1CCC[C@H]1C [Example 104, 1-{3,5-Dimethyl-4-[3-((R)-2-methyl-pyrrolidin-1-yl)-propoxy]-phenyl}-2-(4-pyrimidin-2-yl-piperazin-1-yl)-ethanone]	101 to 500	501 to 1000	155 to 160 °C (dec.)
